{
  "source": "patent US10781183B2",
  "about": "“Small molecule inducers of reactive oxygen species and inhibitors of mitochondrial activity” (The Regents of the University of Michigan, priority 2016, dated 2020)",
  "tested_on": "mtDNA content in MiaPaCa-2 cells",
  "experiment": "Measurement of mtDNA content by qPCR",
  "assay_type": "cell-based",
  "conditions": "MiaPaCa-2 (FIG. 11C)",
  "protocol": "To assess mtDNA content, genomic DNA was isolated with QIAamp® DNA mini kit (Qiagen, Germantown, Md.) from MiaPaCa-2 cells. The mtDNA content was evaluated by co-amplifying a DNA fragment encoding mitochondrial 12S rRNA (forward primer: 5′-[…]-3′; reverse primer: 5′-TGCGCTTACTTTGTAG CCTTCAT-3′) and a DNA fragment encoding the nuclear 18S rRNA (forward primer: 5′-CCCTGCC CTTTGTACACACC-3′; reverse primer: 5′-GATCCGAGGGCCTCACTA-3′). (Vadrot et al., 2012) Real-time qPCR was performed on Viia7 cycler (Applied Biosystems). Amplifications were monitored and analyzed by measuring the intercalation of the fluorescent dye from Fast SYBR® Green Master Mix (Applied Biosystems). Relative mtDNA contents were calculated using 18S rRNA as gene reference.",
  "data": [
    {"smiles": "O=C1C(Nc2ccc(-c3ccccc3)cc2)=CC(=O)c2ncncc21", "note": "[QD325, 6-([1,1′-biphenyl]-4-ylamino)quinazoline-5,8-dione]", "values": [
      {"measurement": "relative levels of mtDNA over time", "value": "decreased time dependently"}
    ]}
  ]
}
